Literature values as cited in US20140356497A1, “Composition” (Natural Biotechnology SPRL, priority 2011, published 2014).

Tested on: Red Delicious apples
Details: 0.25% calcium ascorbate; considered unsatisfactory

Substance: calcium ascorbate
- time for which Red Delicious apples are preserved: ≤ 1 h
